Source: US20070148232A1, “Stabilized pharmaceutical solid compositions of low-solubility drugs and poloxamers, and stabilizing polymers” (Pfizer Inc., priority 2003, published 2007)
≈ marks a conversion by molar mass, not a printed value.

How the values were obtained:
Assay type in all cases: physicochemical
[1] = glass transition temperature (Tg) by DSC; settings: at less than 5% RH
Description: A solid composition was formed by a spray-drying process as follows. […] A spray solution was formed containing 2.5 wt % Viracept, 1.5 wt % Pluronic F127, 1.0 wt % HPMC, 85.5 wt % methanol, and 9.5 wt % water. The solution was mixed until the polymers and drug had all dissolved. The spray solution was pumped using a high-pressure pump to a spray drier (a Niro type XP Portable Spray-Dryer with a Liquid-Feed Process Vessel (“PSD-1”)), equipped with a pressure nozzle (model WG-126, from Delavan LTV). The PSD-1 was equipped with a 5-foot 9-inch chamber extension. The chamber extension was added to the spray dryer to increase the vertical length of the dryer. The added length increased the residence time within the dryer, which allowed the product to dry before reaching the angled section of the spray dryer. The spray drier was also equipped with a 316 SS circular diffuser plate with 1/16-inch drilled holes, having a 1% open area. […] The Tg of the resulting composition was determined by DSC to be about 107° C. at less than 5% RH.
Solid compositions containing Drug 1 were prepared using various amounts of poloxamer 407 and the stabilizing polymers hydroxypropyl methyl cellulose and hydroxypropyl methyl cellulose acetate succinate as described below. […] The Tg of each composition, measured at a relative humidity of less than 10%, is also included in Table 6.

[2] = in vitro dissolution test of Drug 1 compositions in PBS; settings: dose 1000 μg/mL; for AUC / Drug 1 Concentration: PBS, 37° C.
Procedure: The solid composition of Example 1 was evaluated in an in vitro dissolution test as follows. For each test, the composition was added to microcentrifuge tubes in duplicate. […] The samples were quickly mixed using a vortex mixer for about 60 seconds. The samples were centrifuged at 13,000 G at 37° C. for 1 minute. The resulting supernatant solution was then sampled and diluted 1:6 (by volume) with methanol and then analyzed by high-performance liquid chromatography (HPLC). The contents of each respective tube were mixed on the vortex mixer and allowed to stand undisturbed at 37° C. until the next sample was taken. Samples were collected at 4, 10, 20, 40, 90, and 1200 minutes. […] The tubes were placed in a 37° C. temperature-controlled chamber, and 1.8 mL PBS was added. As a control (C4), crystalline Drug 1 alone was tested in PBS and a sufficient amount of material was added so that the concentration of drug would have been 1000 μg/mL, if all of the drug had dissolved.

[3] = solubility in PBS, pH 6.5; settings: pH 6.5, aqueous buffer
[4] = in vitro dissolution test of Drug 2 compositions in PBS; settings: dose 1000 μg/mL; for AUC90 / MDC90: initial ninety minutes; for AUC / Drug 2 Concentration: PBS, 37° C.
Procedure: The solid composition of Example 1 was evaluated in an in vitro dissolution test as follows. For each test, the composition was added to microcentrifuge tubes in duplicate. A 4.21 mg sample of the composition was added to each tube for a total concentration of 1000 μg/mL drug, if all of the drug had dissolved. The tubes were placed in a 37° C. temperature-controlled chamber, and 1.8 mL PBS containing 0.5 wt % sodium taurocholic acid and 1-palmitoyl-2-oleyl-sn-glycero-3-phosphocholine (NaTC/POPC, with a […] weight ratio) at pH 6.5 and 290mOsm/kg (model fasted duodenal solution, “MFDS”) was added to each respective tube. The samples were quickly mixed using a vortex mixer for about 60 seconds. The samples were centrifuged at 13,000 G at 37° C. for 1 minute. The resulting supernatant solution was then sampled and diluted 1:6 (by volume) with methanol and then analyzed by high-performance liquid chromatography (HPLC). The contents of each respective tube were mixed on the vortex mixer and allowed to stand undisturbed at 37° C. until the next sample was taken. Samples were collected at 4, 10, 20, 40, 90, and 1200 minutes.
A sufficient amount of the composition was added to each tube (in duplicate) for a total concentration of 1000 μg/mL drug, if all of the drug had dissolved. The tubes were placed in a 37° C. temperature-controlled chamber, and 1.8 mL PBS was added.
Control 5 (C5) consisted of crystalline Drug 2 alone, tested in PBS, and a sufficient amount of material was added so that the concentration of drug would have been 1000 μg/mL, if all the drug had dissolved.
A sufficient amount of the composition was added to each tube (in duplicate) for a total concentration of 1000 μg/mL drug, if all of the drug has dissolved. The tubes were placed in a 37° C. temperature-controlled chamber, and 1.8 mL PBS was added.
As a control (C6), a composition consisting of 25 wt % Drug 2 and 75 wt % HPMCAS-HF was formed using the rotoevaporation process described for Example 6. The composition was tested in vitro, and a sufficient amount of material was added to PBS so that the concentration of drug would have been 1000 μg/mL, if all of the drug had dissolved.

[5] = in vitro dissolution test of Drug 1 compositions in MFDS; settings: dose 1000 μg/mL; for AUC / Drug 1 Concentration: MFDS, 37° C.
Procedure: The solid composition of Example 1 was evaluated in an in vitro dissolution test as follows. For each test, the composition was added to microcentrifuge tubes in duplicate. […] The samples were quickly mixed using a vortex mixer for about 60 seconds. The samples were centrifuged at 13,000 G at 37° C. for 1 minute. The resulting supernatant solution was then sampled and diluted 1:6 (by volume) with methanol and then analyzed by high-performance liquid chromatography (HPLC). The contents of each respective tube were mixed on the vortex mixer and allowed to stand undisturbed at 37° C. until the next sample was taken. Samples were collected at 4, 10, 20, 40, 90, and 1200 minutes. As a control (C1), crystalline Drug 1 alone was added 1.8 mL of MFDS, at a sufficient amount so that the concentration of drug would have been 1000 μg/mL, if all of the drug had dissolved. […] Control C2 consisted of 50 wt % Drug 1 and 50 wt % HPMC. The composition was formed by first forming a spray solution consisting of […] Drug 1 and 250 mg HPMC in 58.7 gm of a 50.7:8 w/w mixture of acetone:water. This solution was pumped into a “mini” spray-drying apparatus via a Cole Parmer 74900 series rate-controlling syringe pump at a rate of 70 ml/hr. The spray solution was atomized through a Spraying Systems Co. two-fluid nozzle, Model No. SU1A, using a heated stream of nitrogen at a flow rate of 1 SCFM. The spray solution was sprayed into an 11-cm diameter stainless steel chamber. The heated gas entered the chamber at an inlet temperature of 110° C. and exited at ambient temperature. The resulting solid composition was collected on filter paper, dried under vacuum, and stored in a desiccator. This composition was tested in a dissolution test using the procedures described above except that a sufficient amount of the composition was added so that the concentration if all of the drug had dissolved would have been 3000 μg/mL. The stability of the solid composition of Example 1 was evaluated in an accelerated storage test. The composition was stored under elevated temperature and humidity conditions to increase the rate of physical changes occurring in the material in order to simulate a longer storage interval in a typical storage environment. A sample of the composition was stored for 3 weeks at 40° C./75% RH.

[6] = Drug 1, PBS, initial ninety minutes
[7] = Drug 1, MFDS, initial ninety minutes

SMILES: Cc1c(O)cccc1C(=O)N[C@@H](CSc1ccccc1)[C@H](O)CN1C[C@H]2CCCC[C@H]2C[C@H]1C(=O)NC(C)(C)C [Drug 1, N-(1,1-dimethylethyl)decahydro-2-[(2R,3R)-2-hydroxy-3[(3-hydroxy-2-methylbenzoyl)amino]-4-(phenylthio)butyl]-3-isoquinolinecarboxamide (3s, 4aS, 8aS)-monomethanesulfonate]
- Tg [1]: 119 °C
- AUC90 [2, 6]: 285 µg·min/mL
- MDC90 [2, 6]: 6 µg/mL
- AUC ([2]; 0 min): 0 µg·min/mL
- Drug 1 Concentration ([2]; 0 min): 0 µg/mL
- AUC ([2]; 4 min): 11 µg·min/mL
- Drug 1 Concentration ([2]; 4 min): 5 µg/mL
- AUC ([2]; 10 min): 46 µg·min/mL
- Drug 1 Concentration ([2]; 10 min): 6 µg/mL
- AUC ([2]; 20 min): 106 µg·min/mL
- Drug 1 Concentration ([2]; 20 min): 6 µg/mL
- AUC ([2]; 40 min): 180 µg·min/mL
- Drug 1 Concentration ([2]; 40 min): 2 µg/mL
- AUC ([2]; 90 min): 285 µg·min/mL
- Drug 1 Concentration ([2]; 90 min): 2 µg/mL
- AUC ([2]; 1200 min): 12,730 min*μg/mL
- Drug 1 Concentration ([2]; 1200 min): 20 µg/mL
- solubility [3]: ~20 µg/mL (≈ 35.2 µM)
- AUC90 ([4]; Drug 2, PBS): <100 µg·min/mL
- MDC90 ([4]; Drug 2, PBS): <1 µg/mL
- AUC90 [5, 7]: 9,500 min*μg/mL
- MDC90 [5, 7]: 118 µg/mL
- AUC ([5]; 0 min): 0 µg·min/mL
- Drug 1 Concentration ([5]; 0 min): 0 µg/mL
- AUC ([5]; 4 min): 160 µg·min/mL
- Drug 1 Concentration ([5]; 4 min): 80 µg/mL
- AUC ([5]; 10 min): 700 µg·min/mL
- Drug 1 Concentration ([5]; 10 min): 98 µg/mL
- AUC ([5]; 20 min): 1,700 min*μg/mL
- Drug 1 Concentration ([5]; 20 min): 102 µg/mL
- AUC ([5]; 40 min): 3,800 min*μg/mL
- Drug 1 Concentration ([5]; 40 min): 108 µg/mL
- AUC ([5]; 90 min): 9,500 min*μg/mL
- Drug 1 Concentration ([5]; 90 min): 118 µg/mL
- AUC ([5]; 1200 min): 247,000 min*μg/mL
- Drug 1 Concentration ([5]; 1200 min): 310 µg/mL

SMILES: CCOC(=O)N1c2ccc(C(F)(F)F)cc2[C@@H](N(Cc2cc(C(F)(F)F)cc(C(F)(F)F)c2)C(=O)OC)C[C@H]1CC [Drug 2, [2R,4S] 4-[(3,5-bis-trifluoromethyl-benzyl)-methoxycarbonyl-amino]-2-ethyl-6-trifluoromethyl-3,4-dihydro-2H-quinoline-1-carboxylic acid ethyl ester]
- Tg [1]: about 30 °C
- solubility [3]: < 1 µg/mL
- C1200 ([4]; Drug 2, PBS, concentration of drug at 1200 minutes): <1 µg/mL
- AUC90 ([4]; Drug 2, PBS): <100 µg·min/mL
- MDC90 ([4]; Drug 2, PBS): <1 µg/mL
- AUC ([4]; 0 min): <100 µg·min/mL
- Drug 2 Concentration ([4]; 0 min): <1 µg/mL
- AUC ([4]; 4 min): <100 µg·min/mL
- Drug 2 Concentration ([4]; 4 min): <1 µg/mL
- AUC ([4]; 10 min): <100 µg·min/mL
- Drug 2 Concentration ([4]; 10 min): <1 µg/mL
- AUC ([4]; 20 min): <100 µg·min/mL
- Drug 2 Concentration ([4]; 20 min): <1 µg/mL
- AUC ([4]; 40 min): <100 µg·min/mL
- Drug 2 Concentration ([4]; 40 min): <1 µg/mL
- AUC ([4]; 90 min): <100 µg·min/mL
- Drug 2 Concentration ([4]; 90 min): <1 µg/mL
- AUC ([4]; 1200 min): <100 µg·min/mL
- Drug 2 Concentration ([4]; 1200 min): <1 µg/mL
